Measurements published in patent US12700475B2, “Systems and methods for dissecting heterogeneous cell populations” (California Institute of Technology, priority 2018, dated 2026).

What was measured:
[1] = tested on: neural progenitor subpopulation from the ventricular zone (VZ); experiment: High-concentration additional signals on ventricular zone cells: neural progenitor subpopulation aligned to VZ-D0, differential genes by L1-norm; format: cell-based, mouse
Protocol: Having seen that these signals can control population structure, whether these additional signals induced major transcriptional changes in neural stem cells was determined. Further, whether any changes restored the functional defects observed in response to in vitro culture was determined. To learn these transcriptional changes, a new experiment was performed using high concentrations of signaling factors for two reasons: 1) the original combinatorial screen required the cells to be fixed in methanol, which may disrupt gene expression values thus making comparing that data directly to the in vivo data difficult and 2) the original combinatorial screen suffered from low sample number for some of the conditions, due to variation in proliferation rate. This new experiment was performed by adding high concentrations of additional signals (BMP4 (20 ng/mL), CHIR (3 uM), PDGF-AA (20 ng/mL) and DLL1 (surface-coated)) in addition to high concentrations of EGF/FGF immediately after dissociation of cells from the VZ, and all cells were grown for five days in these signal cocktails before profiling.
First, models were built for all of the new samples, aligned each to the VZ-D0 sample (which served as the control), and then only the subpopulations across all samples that aligned to the neural progenitor population were pulled out (FIG. 39B). By plotting the Jeffreys Divergence between these aligned populations (FIG. 39C), all the in vivo populations (E15, E18, and VZ-D0) were seen to be close to each other, while in vitro populations were very distant (VZ-D18 and ivNSC).
To confirm this possibility, the genes that were differentially expressed in the BMP4-, DLL-, PDGF-, and CHIR-containing cells were examined, and these genes were compared to the genes discovered in FIG. 36A-36I. […] By contrast, CHIR only rescued 3 of the lost genes, while DLL and PDGF had only one differentially regulated gene each (FIG. 39D).
Normally in development, these neural progenitors give rise to neurons that form six distinct layers in the cortex. These cortical layers have distinct functions, connectivity patterns, and gene expression patterns, which have been characterized in the literature. The gene expression patterns of these layer-specific genes were examined in neural progenitor populations aligned across all samples (FIGS. 39H-39I). Expression of these genes, while noisy, was very extensive in the in vivo populations, but that culture in vitro erased their expression.
Neuroprogenitors are dissociated from the combined cortex, hippocampus and ventricular zone of E18 mice (Brainbits). After dissociation and resuspension of the cells in NPgrow, cells were counted and plated onto ultra-low attachment 100 mm culture plates (Corning) at one million cells per plate in 10 mL of NPgrow supplemented with 1% Penicillin-Streptomycin. Cells were cultured at 37° C. and 5% CO2 and supplemented medium was changed every 3 to 4 days. In some experiments, subventricular zone (SVZ) stem cells were derived with supplemental factors during derivation. PDGF-AA and BMP4 (Peprotech) were used at […], and 20 ng/mL. CHIR99021 (Stem Cell) was used at 3 uM. DLL1 ligand was coated onto tissue culture plastic for one hour before plating cells.
For each gene, two empirical distributions P1(g), P2(g), one for each subpopulation, were determined. These distributions were discretized over identical histogram binnings, a, over the gene's entire range of expression, Ω. Then the L1 distance was defined as: d=sign(g2−g1)Σa∈Ω∥P1(a)−P2(a)∥1, where g1 and g2 denote the respective means of subpopulations 1 and 2. […] The L1 distance ranged from −2 to +2, both of which corresponded to completely non-overlapping distributions. Genes with L1 distances of high magnitude (≳0.5) always had distributions which, by eye, were in obvious agreement with the labeled directionality. […] Query.

[2] = tested on: neural stem cells / progenitor subpopulations from E18 mouse brain; experiment: Combinatorial signal screen on cells dissociated from the brain: LLR ranking, query, multinomial logistic regression of subpopulation abundances; format: cell-based; settings: for log-likelihood ratio (LLR) score against control population: control 20 ng/mL EGF/FGF
Protocol: Next, whether and how signaling interventions can pre-emptively bias the transcriptional state of neural stem cells, potentially restoring lost functionality, were determined. Given the finding that transcriptional changes happened in less than three days after in vitro culture, signals were added immediately after dissociation from the brain. Signals known to be important in neural stem cell differentiation into astrocytes (BMP4), neurons (Wnt pathway through CHIR activation), or oligodendrocytes (PDGF-AA), were chosen. A combinatorial screen, in which these signals were added together with EGF/FGF at varying concentrations to dissociated cells from the brain, were performed. The cells were grown for 5 days before profiling. To profile all of these samples, a multiplexing approach, in which cells were methanol fixed and then covalently labeled with a separate exogenous DNA barcode for each experimental condition, was used. A total of 8691 cells were profiled across 19 conditions [See Methods—Experimental multiplexing using Clicktags in this example].
First, how the populations responded at a high-level were examined by using the PopAlign framework to build new models of populations, and the populations were ranked against a control population using a Log-likelihood ratio score (FIG. 38A). In this case, the control population was defined as the 20 ng/mL EGF/FGF condition, which is the concentration of growth factors normally used to propagate neural stem cells in culture. The log-likelihood ratio score is a single metric that measures the extent to which an entire population model diverges from a control population.
To investigate this more deeply, how the population structure of these progenitor cells responded to the signaling cues was determined. For this analysis the query function [See Methods—Query in this example] of the modeling framework was used to score all cells in each sample using a standard model built from the control population. For this combinatorial screen, some conditions suffered from poor sampling (roughly 100 cells vs. 1000 cells for most samples) due to variation in proliferation rates. Thus, querying all samples using the same model was more robust than building separate models (which can be of poor quality with severe undersampling). The first 3 principal components (PCs) were used as the feature vectors in order to improve the sampling within the gene expression space.
In this new analysis, the population were segmented into more fine-grained subpopulations (FIG. 38B). While there was a committed neuroblast population, the neural progenitor population now split into three subpopulations: (1) a proliferating progenitor (PP) population that actively expressed mitotic genes, (2) a non-proliferating progenitor population (NPP), as well as (3) a basal progenitor (BP) that only expressed the progenitor program (Prog), but not glial genes like ALDOC or SPARCL1. Using the control model, individual cells from each sample were scored and assigned into one of the four subpopulations, and abundances of each individual subpopulation across all experimental samples were (FIG. 38D).
To dissect how the abundances of these individual populations responded to signals, a multinomial logistic regression analysis was performed. Multinomial logistic regression models were used to determine the probability of each cell belonging to one of K mutually exclusive classes (in this case, the four subpopulations defined above) based on m independent predictor variables (in this case, the concentrations of each signal) [See Methods—Multinomial logistic regression in this example].
By examining the regression coefficients β, the relationship between each signal and how the signal regulates the proportions of each cell type can be determined. Importantly, the regression model only computed coefficients for K−1 of the outcome classes, while the K^th class was treated as a reference. […]

[3] = tested on: primary human peripheral blood mononuclear cells (PBMCs); experiment: PBMC signaling experiment: single-cell mRNA-seq with PopAlign alignment to the reference PBMC sample; format: cell-based; settings: 1 ng/mL, 13 hours
Protocol: One non-limiting application of PopAlign is to study heterogeneous cell populations in the human body as they respond to environmental change, drug treatments, and disease. The human immune system is an extremely heterogeneous physiological system that is central for disease and cell engineering applications. As a test case, PopAlign was tested for its ability to identify subtype-specific signaling responses in a complex mixture of primary human immune cells. Thus, primary human peripheral blood mononuclear cells (PBMCs) (FIG. 17A) were treated with two lymphokines—granulocyte-macrophage colony-stimulating factor (GM-CSF) (FIG. 17C) and interferon-gamma (IFNG) (FIG. 17D) that are known to have a specific impact on monocytes (See Experimental Methods). […] In the reference PBMCs, five independent cell densities (FIG. 17A) were identified and classified using canonical markers from the literature (FIG. 17B). The signal treated cell-populations (FIGS. 17C-17D) were aligned to the PBMC data (FIG. 17A), finding that, for both signals, the monocyte populations (mixtures PBMC-1, PBMC-3) had the largest shifts in their average gene expression state (|Δμ|>0.04) (FIG. 17F). While T-cell abundances changed (numbers), their mean cell states (μ) had the lowest magnitude of gene expression shift. For immune cell experiments, the independent mixture components were classified as effector T cells (CD3+/CD57+), naive T-cells(CD3+/CD28+), erythrocytes (HBB+), canonical monocytes (CD14+/CD16low), and nonclassical monocytes(CD14low/CD16++) (FIG. 16E). Populations in the test samples—GM-CSF (FIG. 16B) and IFNG (FIG. 15C)—were aligned to the reference populations (control) by finding pairs of components that minimize the Jeffrey's divergence (FIG. 16D). Cryopreserved PBMCs sourced from Hemacare (~10 million cells, source ID: D23127, Lot: 17043194) were thawed in a 37° C. waterbath for 2 minutes after which the cells were transferred to a 15 mL conical tube. Prewarmed RPMI1640 was then added to the 15 mL conical to a final volume of 10 mL and centrifuged for 2 minutes at 300RCF to pellet the cells. Supernatant was removed and cells were resuspended in 10 mL of RPMI1640 supplemented with 10% FBS and 1% pen/strep. The cell suspension was then plated onto a 100 mm low attachment plate and placed in a CO2 incubator at 37° C. for 5 hours for the cells to recover. For each condition, 700,000 cells were aliquoted into a well of a 96 well plate. These cells were cultured for 13 hours under two different conditions: 1) IFN-γ@ 1 ng/mL, 2) GM-CSF 1 ng/mL, each with a single additional replicate. After incubation, the plate was sealed with an aluminum adhesive and centrifuged for 3 minutes at 300RCF. […]

| Molecule | log-likelihood ratio (LLR) score against control population ([2]; 5 days) | class of transcriptional (signaling) response of canonical and non-canonical monocytes [3] | gene expression programs altered in monocytes [3] | number of differentially regulated genes ([1]; 5 days with high EGF/FGF) | other results |
| --- | --- | --- | --- | --- | --- |
| Cc1c[nH]c(-c2cnc(NCCNc3ccc(C#N)cn3)nc2-c2ccc(Cl)cc2Cl)n1 [CHIR, CHIR99021, reference compound] | lowest LLR score |  |  |  | number of genes downregulated in ivNSCs that are re-induced (upregulated) by the signal ([1]; of 190 genes downregulated in ivNSCs vs E18 NProgs, 5 days with high EGF/FGF): 3 genes; odds ratio, proliferating progenitors (PP) vs non-proliferating progenitors (NPP) ([2]; per unit of signal (unit = maximum: EGF/FGF 20 ng/mL each, CHIR 3 uM), 5 days): 0.6 |
| GM-CSF: lymphokine signal applied to PBMCs at 1 ng/mL |  | additive | activating a new gene expression program called Chemokine Secretion/Leukocyte Migration pathway |  |  |
| IFNG: lymphokine signal applied to PBMCs at 1 ng/mL |  | convergent | up-regulation of pathways involved in antigen presentation and phagocytosis |  |  |
| PDGF |  |  |  | one | odds ratio, basal progenitors vs non-proliferating progenitors ([2]; per unit of signal (PDGF-AA 20 ng/mL), 5 days): 1.75 |
| DLL: DLL1 ligand, surface-coated onto tissue culture plastic (protein, UniProt O00548 18-723, looked up, surface-coated, DLL1 ligand, surface-coated onto tissue culture plastic) Delta-like protein 1: QVWSSGVFELKLQEFVNKKGLLGNRNCCRGGAGPPPCACRTFFRVCLKHYQASVSPEPPCTYGSAVTPVLGVDSFSLPDGGGADSAFSNPIRFPFGFTWPGTFSLIIEALHTDSPDDLATENPERLISRLATQRHLTVGEEWSQDLHSSGRTDLKYSYRFVCDEHYYGEGCSVFCRPRDDAFGHFTCGERGEKVCNPGWKGPYCTEPICLPGCDEQHGFCDKPGECKCRVGWQGRYCDECIRYPGCLHGTCQQPWQCNCQEGWGGLFCNQDLNYCTHHKPCKNGATCTNTGQGSYTCSCRPGYTGATCELGIDECDPSPCKNGGSCTDLENSYSCTCPPGFYGKICELSAMTCADGPCFNGGRCSDSPDGGYSCRCPVGYSGFNCEKKIDYCSSSPCSNGAKCVDLGDAYLCRCQAGFSGRHCDDNVDDCASSPCANGGTCRDGVNDFSCTCPPGYTGRNCSAPVSRCEHAPCHNGATCHERGHRYVCECARGYGGPNCQFLLPELPPGPAVVDLTEKLEGQGGPFPWVAVCAGVILVLMLLLGCAAVVVCVRLRLQKHRPPADPCRGETETMNNLANCQREKDISVSIIGATQIKNTNKKADFHGDHSADKNGFKARYPAVDYNLVQDLKGDDTAVRDAHSKRDTKCQPQGSSGEEKGTPTTLRGGEASERKRPDSGCSTSKDTKYQSVYVISEEKDECVIATEV |  |  |  | one |  |
| BMP4: signaling factor (Peprotech) important in neural stem cell differentiation into astrocytes (protein, UniProt P12644 293-408, looked up) Bone morphogenetic protein 4: SPKHHSQRARKKNKNCRRHSLYVDFSDVGWNDWIVAPPGYQAFYCHGDCPFPLADHLNSTNHAIVQTLVNSVNSSIPKACCVPTELSAISMLYLDEYDKVVLKNYQEMVVEGCGCR | lowest LLR score |  |  |  | rescue of expression of cortical layer-specific genes in neural progenitors ([1]; 5 days in culture): only signal that could rescue the expression of these genes; number of genes upregulated in ivNSCs that are suppressed by the signal ([1]; 5 days with high EGF/FGF): 22 genes; Jeffreys Divergence of aligned neural progenitor subpopulation to in vivo populations ([1]; compared to VZ-D5, VZ-D5-CHIR, VZ-D5-DLL, VZ-D5-PDGF): closest to the in vivo populations; committed neuroblasts (CN) proportion of the population ([2]; addition of BMP and low EGF/FGF): ~50%; odds ratio, committed neuroblasts vs non-proliferating progenitors ([2]; per unit of signal (BMP4 20 ng/mL), 5 days): 2.2 |
